14 molecules from patent publication US8742078B2, “Antibacterial 4,6-substituted 6′, 6″ and 1 modified aminoglycoside analogs” (Isis Pharmaceuticals, Inc., priority 2008, dated 2014) can be followed below.

Assay [1] concerns P. aeruginosa 29248. In words: MIC assay, P. aeruginosa 29248. Type of assay: cell-based. Also noted: unit not given here. The settings on record: range: complete growth inhibition at higher, viable cells at lower concentration; 20-24 hours at 37° C. How it is done: (§1) The MIC assays are carried out in 150 μL volume in duplicate in 96-well clear flat-bottom plates. The bacterial suspension from an overnight culture growth in appropriate medium is added to a solution of test compound in 2.5% DMSO in water. Final bacterial inoculum is approximately 10^2-10^3 CFU/well. The percentage growth of the bacteria in test wells relative to that observed for control wells containing no compound is determined by measuring absorbance at 595 nm (A595) after 20-24 hours at 37° C. The MIC is determined as a range of concentration where complete inhibition of growth is observed at the higher concentration and bacterial cells are viable at the lower concentration. Both ampicillin and tetracycline are used as antibiotic positive controls in each screening assay. Both ampicillin and tetracycline are used as antibiotic-positive controls in each screening assay for S. pyogenes, E. coli imp-, E. coli, S. aureus, E. faecalis, K. pneumoniae and P. vulgaris. Ciprofloxacin is used as an antibiotic positive control in each screening assay for P. aeruginosa.

For assay [2], the system named is P. aeruginosa 27853. As to the kind of experiment: MIC assay, P. aeruginosa 27853. Also noted: unit not given here. In kind it is cell-based. Conditions: range: complete growth inhibition at higher, viable cells at lower concentration; 20-24 hours at 37° C. How it is done: as §1

A value given as a limit tells only on which side of the number the result lay.

Turning to “6″-deoxy-6″-phenethylamino-N-1-(4-amino-2-S-hydroxybutyryl)kanamycin A [IBIS00561977]”, in assay [1], the “MIC P aeruginosa 29248” value is recorded as 5-10. Also, the “MIC P aeruginosa 27853” value in assay [2] is given as 10-20.
As for `NC[C@H]1O[C@H](O[C@H]2[C@H](O)[C@@H](O[C@H]3O[C@H](CO)[C@@H](O)[C@H](N)[C@H]3O)[C@H](N)C[C@@H]2N)[C@H](O)[C@@H](O)[C@@H]1O` [IBIS00262400, Kanamycin A, reference compound], the “MIC P aeruginosa 29248” value in assay [1] is on record as 2.5-5. The “MIC P aeruginosa 27853” value in assay [2] was 1.25-2.5.
Turning to `NCC[C@H](O)C(=O)N[C@@H]1C[C@H](N)[C@@H](O[C@H]2O[C@H](CN)[C@@H](O)[C@H](O)[C@H]2O)[C@H](O)[C@H]1O[C@H]1O[C@H](CO)[C@@H](O)[C@H](N)[C@H]1O` [IBIS00404962, Amikacin, reference compound], in assay [1], the “MIC P aeruginosa 29248” value is under 0.625. Also, the “MIC P aeruginosa 27853” value in assay [2] is listed as 1.25-2.5.
As to `NCC[C@H](O)C(=O)N[C@@H]1C[C@H](N)[C@@H](O[C@H]2O[C@H](CNCCc3ccccc3)[C@@H](O)[C@H](O)[C@H]2O)[C@H](O)[C@H]1O[C@H]1O[C@H](CO)[C@@H](O)[C@H](N)[C@H]1O` [IBIS00561960, 6′-N-Phenethylamino-N-1-(4-amino-2-S-hydroxybutyryl)kanamycin A], in assay [1], the “MIC P aeruginosa 29248” value was 5-10. In addition, in assay [2], the “MIC P aeruginosa 27853” value is 2.5-5.0.
With `CN(C)CC1OC(OC2C(N)CC(NC(=O)[C@@H](O)CCN)C(OC3OC(CO)C(O)C(N)C3O)C2O)C(O)C(O)C1O` (stereo partly shown) [IBIS00561961, 6′-N,N-Dimethyl-N-1-(4-amino-2-S-hydroxybutyryl)kanamycin A], the “MIC P aeruginosa 29248” value in assay [1] is over 40. Moreover, in assay [2], the “MIC P aeruginosa 27853” value is listed as 10-20.
Take `NCC[C@H](O)C(=O)N[C@@H]1C[C@H](N)[C@@H](O[C@H]2O[C@H](CNCCCc3ccccc3)[C@@H](O)[C@H](O)[C@H]2O)[C@H](O)[C@H]1O[C@H]1O[C@H](CO)[C@@H](O)[C@H](N)[C@H]1O` [IBIS00561962, 6′-N-Phenpropylamino-N-1-(4-amino-2-S-hydroxybutyryl)kanamycin A]: in assay [1], the “MIC P aeruginosa 29248” value was 2.5-5.0. The “MIC P aeruginosa 27853” value in assay [2] is listed as 2.5-5.0.
Take `CC(C)CNCC1OC(OC2C(N)CC(NC(=O)[C@@H](O)CCN)C(OC3OC(CO)C(O)C(N)C3O)C2O)C(O)C(O)C1O` (stereo partly shown) [IBIS00561963, 6′-N-Isobutyl-N-1-(4-amino-2-S-hydroxybutyryl)kanamycin A]: in assay [1], the “MIC P aeruginosa 29248” value is reported as over 40. The “MIC P aeruginosa 27853” value in assay [2] is on record as 10-20.
With `CNC[C@H]1O[C@H](O[C@@H]2[C@@H](O)[C@H](O[C@H]3O[C@H](CN)[C@@H](O)[C@H](O)[C@H]3O)[C@@H](N)C[C@H]2NC(=O)[C@@H](O)CCN)[C@H](O)[C@@H](N)[C@@H]1O` [IBIS00561974, 6″-deoxy-6″-methylamino-N-1-(4-amino-2-S-hydroxybutyryl)kanamycin A], the “MIC P aeruginosa 29248” value in assay [1] is reported as 0.625-1.25. For the same molecule, the “MIC P aeruginosa 27853” value in assay [2] is 2.5-5.0.
Consider `CC(C)NC[C@H]1O[C@H](O[C@@H]2[C@@H](O)[C@H](O[C@H]3O[C@H](CN)[C@@H](O)[C@H](O)[C@H]3O)[C@@H](N)C[C@H]2NC(=O)[C@@H](O)CCN)[C@H](O)[C@@H](N)[C@@H]1O` [IBIS00561975, 6″-deoxy-6″-isopropylamino-N-1-(4-amino-2-S-hydroxybutyryl)kanamycin A], for which the “MIC P aeruginosa 29248” value in assay [1] is given as 10-20. The “MIC P aeruginosa 27853” value in assay [2] was 10-20.
For the molecule `NCC[C@H](O)C(=O)NC1CC(N)C(OC2OC(CN)C(O)C(O)C2O)C(O)C1OC1OC(CNC2CCCCC2)C(O)C(N)C1O` (stereo partly shown) [IBIS00561976, 6″-deoxy-6″-cyclohexylamino-N-1-(4-amino-2-S-hydroxybutyryl)kanamycin A], the “MIC P aeruginosa 29248” value in assay [1] is 5-10. The “MIC P aeruginosa 27853” value in assay [2] is over 40.
The corresponding values for `[N-]=[N+]=NC[C@H]1O[C@H](O[C@@H]2[C@@H](O)[C@H](O[C@H]3O[C@H](CN)[C@@H](O)[C@H](O)[C@H]3O)[C@@H](N)C[C@H]2NC(=O)[C@@H](O)CCN)[C@H](O)[C@@H](N)[C@@H]1O` [IBIS00561980, 6″-deoxy-6″-azido-N-1-(4-amino-2-S-hydroxybutyryl)kanamycin A] are 0.625-1.25 and 2.5-5.0.
On to `CCCNC[C@H]1O[C@H](O[C@@H]2[C@@H](O)[C@H](O[C@H]3O[C@H](CN)[C@@H](O)[C@H](O)[C@H]3O)[C@@H](N)C[C@H]2NC(=O)[C@@H](O)CCN)[C@H](O)[C@@H](N)[C@@H]1O` [IBIS00561982, 6″-deoxy-6″-propylamino-N-1-(4-amino-2-S-hydroxybutyryl)kanamycin A], for which the “MIC P aeruginosa 29248” value in assay [1] is 2.5-5.0. In assay [2], the “MIC P aeruginosa 27853” value is 5.0-10.0.
Regarding `CN(C)CCNCC1OC(OC2C(NC(=O)C(O)CCN)CC(N)C(OC3OC(CN)C(O)C(O)C3O)C2O)C(O)C(N)C1O` (stereo not shown) [IBIS00561983, 6″-deoxy-6″-dimethylaminoethylamino-N-1-(4-amino-2-S-hydroxybutyryl)kanamycin A], in assay [1], the “MIC P aeruginosa 29248” value is given as 1.25-2.5. Besides, the “MIC P aeruginosa 27853” value in assay [2] is given as 1.25-2.5.
For `NCC[C@H](O)C(=O)N[C@@H]1C[C@H](N)[C@@H](O[C@H]2O[C@H](CN)[C@@H](O)[C@H](O)[C@H]2O)[C@H](O)[C@H]1O[C@H]1O[C@H](CNCCNCc2ccccc2)[C@@H](O)[C@H](N)[C@H]1O` [IBIS00561984, 6″-deoxy-6″-benzylaminoethylamino-N-1-(4-amino-2-S-hydroxybutyryl)kanamycin A], the “MIC P aeruginosa 29248” value in assay [1] was 5.0-10.0. Further, the “MIC P aeruginosa 27853” value in assay [2] was 5.0-10.0.
